# Measurements: patent US20220009891A1, “(R) ENANATIOMER OF APLEXONE” (The Regents of the University of California, priority 2018, published 2022)
# Experiments:
# [1] = test system: Transgenic Tg(kdrl:GFP)la116 zebrafish embryos; assay: Disruption of the caudal vein plexus in zebrafish embryos; type: in vivo; settings: two-day-old zebrafish embryos, treated beginning at 10 hpf
# Description: (§1) Transgenic Tg(kdrl:GFP)la116 zebrafish embryos were treated with aplexone compounds beginning at 10 hours post fertilization (hpf). After two days of development, treated embryos were anesthetized with 0.01% tricaine and imaged using a Zeiss Axioplan 2 microscope. […] Formation of the caudal vein plexus is disrupted by treatment with 10 μM or higher of racemic (±)-aplexone (3) and 5 μM or higher of R-aplexone (3), but the caudal vein plexus forms normally even after treatment with 20 μM (S)-aplexone (3).
# Zebrafish embryos [2] = assay: Cholesterol assay in zebrafish embryos (Amplex Red Cholesterol Assay Kit); type: in vivo; settings: 40 μM, treated from 10 hpf to 30 hpf; FIG. 1
# Description: (§2) Zebrafish embryos used in cholesterol assays were treated with aplexone or atorvastatin (AT) from 10 hpf to 30 hpf at a concentration of 40 μM. Yolks were removed by vortexing in calcium-free Ringer's solution with 1 mM EDTA at 4° C. The embryos were then washed with calcium-free Ringer's solution, resuspended in cholesterol assay reaction buffer, and lysed by sonication. Cholesterol levels in embryo lysates were measured with an Amplex Red Cholesterol Assay Kit (ThermoFisher Scientific) and FLUOstar Omega microplate reader (BMG Labtech). Protein concentrations of the embryo lysates were measured by DC protein assay (Bio-Rad Laboratories) using a FLUOstar Omega microplate reader.
# [3] = test system: HMG-CoA reductase pathway; settings: zebrafish; Choi et al., Development 2011; cited from earlier work
# zebrafish = settings: Choi et al., Development 2011; cited from earlier work
# Zebrafish embryos [4] = assay: Biological assays used herein (summary statement); type: in vivo
# Description: as §1, §2
smiles,measurement,setting,value
"CC(=O)C1=CCC(c2ccccc2)N(S(=O)(=O)c2ccc(C)cc2)C1 (racemic) [(±)-aplexone, 1-(6-phenyl-1-tosyl-1,2,5,6-tetrahydropyridin-3-yl)ethan-1-one]",concentration at which formation of the caudal vein plexus is disrupted,[1],≥ 10 µM
same,cholesterol levels in embryo lysates compared with atorvastatin (AT),Zebrafish embryos [2],lowered the cholesterol levels to an extent similar to that of AT
same,regulation of arteriovenous angiogenesis,[3],regulate arteriovenous angiogenesis in zebrafish
same,levels of embryonic cholesterol compared with atorvastatin,zebrafish,lowered the levels of embryonic cholesterol to a degree similar to that of atorvastatin
"CCOC(=O)C1=CC[C@H](c2ccccc2)N(S(=O)(=O)c2ccc(C)cc2)C1 [7c, Ethyl (R)-6-phenyl-1-tosyl-1,2,5,6-tetrahydropyridine-3-carboxylate]",melting point,,145 to 146 °C
CC(=O)C1=CC[C@H](c2ccccc2)N(S(=O)(=O)c2ccc(C)cc2)C1 [R-aplexone],concentration at which formation of the caudal vein plexus is disrupted,[1],≥ 5 µM
same,cholesterol levels in embryo lysates compared with atorvastatin (AT),Zebrafish embryos [2],decreased the cholesterol levels to a greater extent than AT
same,biological activity of the enantiomer,Zebrafish embryos [4],active enantiomer
CC(=O)C1=CC[C@@H](c2ccccc2)N(S(=O)(=O)c2ccc(C)cc2)C1 [S-aplexone],concentration at which formation of the caudal vein plexus is disrupted,[1],> 20 µM
same,cholesterol levels in embryo lysates compared with atorvastatin (AT),Zebrafish embryos [2],no cholesterol lowering activity
same,biological activity of the enantiomer,Zebrafish embryos [4],little to no biological activity
